By AUC(0-inf) is commonly meant total exposure, with the tail of the curve extrapolated. As usually defined, the melting point is the temperature, or range, at which the solid turns liquid. As usually defined, the chromatographic logD is lipophilicity estimated from chromatographic retention. A word on the fraction unbound: it is the share of the substance not bound to proteins or other matrix. One may read the Cmax as the peak of the concentration-time curve. A word on the Tmax: it is the time at which the peak concentration occurs.

≈ marks a conversion by molar mass, not a printed value. Where two headings read alike, the source gives them in different places. Some results are limits rather than exact numbers.

One data set has as its system H37Rv. Further details: species or system mice. Conditions: mouse, in vivo, po.
A short description of data set [1]: Vero cytotoxicity assay (MTT). Conditions: African green monkey, Vero cells.
Data set [2] in a line: Oral pharmacokinetic studies in mice, peripheral total blood. To be noted: female, C57BL/6, mouse, whole blood.
Data set [3] concerns M. tuberculosis H37Rv bacilli. Conditions: cited from earlier work.
Data set [4] has as its target human serum albumin (HSA) (Homo sapiens, UniProt P02768). The data set is classed as in vitro ADME. Here is the method:
Standard physical chemical property determination methods were used. Please see the Supporting Information for details.
Protocol S4. Determination of compounds binding to human serum albumin (HSA).
The determination of compounds binding to human serum albumin (HSA) was carried out by retention time measurements using immobilized HSA HPLC columns obtained from Chiral Technologies Ltd, France. The column dimensions were 50x3 mm. The mobile phase was 50 mM ammonium acetate buffer pH 7.4 and HPLC grade 2-propanol. HPLC Method: flow rate 1.8 ml/min applying 2.5 min 2-propanol gradient up to 30%. From 2.5 min to 4.5 min the 2-propanol concentration in the mobile phase was kept at 30%. From 4.5 min to 4.6 min, the 2-propanol concentration was decreased to 0% and kept like that until the end of the gradient run which was 6 min. A calibration set of compounds was first analyzed for which plasma protein binding data were available: Warfarin, Nizatidine, Bromazepam, Carbamazepine, Budesonide, Nicardipine, Indomethacine, Piroxicam, Naproxen. The calculation of the HSA binding data expressed as %HSA was carried out as described previously.

The nature of data set [5]: in vitro. The class given is in vitro ADME, mouse. To be noted: for t1/2 in mouse microsomes / half-life: mouse microsomes; for half-life: read-out: t1/2 in mouse microsomes. Here is the method:
(§1) Protocol S6. Microsomal fraction stability experimental procedure.
(§2) Pooled mouse and human liver microsomes are purchased from Xenotech. Microsomes (final protein concentration 0.5 mg/mL, MgCl2 (final concentration = 5 mM) and test compound (final substrate concentration = 0.5 µM; final DMSO concentration = 0.5%) in 0.1M phosphate buffer pH 7.4 were pre-incubated at 37°C prior to the addition of NADPH (final concentration = 1 mM) to initiate the reaction. The final incubation volume was 600 µL. A control incubation was included for each compound tested where 0.1 M phosphate buffer pH 7.4 is added instead of NADPH (minus NADPH). One control compound was included with each species. All incubations were performed singularly for each test compound. Each compound was incubated for 30 minutes and samples (90 µL) of incubate were taken at 0, 5, 15, 20 and 30 min. The control (minus NADPH) was sampled at 30 min only. The reactions were stopped by the addition of sample to 200 µL Acetonitrile:Methanol 3:1 containing internal standard. The terminated samples were centrifuged at 2.500 rpm for 20 min at 4°C to precipitate the protein.
(§3) Quantitative Analysis: following protein precipitation, the samples were analyzed using specific […]
(§4) Data Analysis: from a plot of ln peak area ratio (compound peak area/internal standard peak area) against time, the gradient of the line was determined. Subsequently, half-life and intrinsic clearance were calculated using the equations below:
(§5) Elimination rate constant (k) = (- gradient)
(§6) Half life (t1/2) (min) = […]
(§7) Intrinsic Clearance (CLint) (mL/min/g protein) = […] where V=Incubation volume mL/g microsomal protein.

Data set [6] can be described thus: in vitro. The data set is classed as in vitro ADME, human. To be noted: for t1/2 in human microsomes / half-life: human microsomes; for half-life: read-out: t1/2 in human microsomes. Here is the method:
as §1, §2, §3, §4, §5, §6, §7

The conditions of data set [7]: at 1 µM.
A further data set deals with M. tuberculosis H37Rv. Nature of the data set: microbe, parasite or virus in culture. To be noted: Mycobacterium tuberculosis, aerobic conditions. The data set is classed as cell-based.
Experiment in data set [8]: not given
This is another data set of the same source.

Data set [9] can be described thus: in vitro. To be noted: African green monkey.
The nature of data set [10]: in vitro. Conditions: plasma, pH 7.4.
A further data set can be described thus: in vivo. To be noted: female, C57BL/6, mouse, po.

Chain of human serum albumin (HSA) (P02768 25-609): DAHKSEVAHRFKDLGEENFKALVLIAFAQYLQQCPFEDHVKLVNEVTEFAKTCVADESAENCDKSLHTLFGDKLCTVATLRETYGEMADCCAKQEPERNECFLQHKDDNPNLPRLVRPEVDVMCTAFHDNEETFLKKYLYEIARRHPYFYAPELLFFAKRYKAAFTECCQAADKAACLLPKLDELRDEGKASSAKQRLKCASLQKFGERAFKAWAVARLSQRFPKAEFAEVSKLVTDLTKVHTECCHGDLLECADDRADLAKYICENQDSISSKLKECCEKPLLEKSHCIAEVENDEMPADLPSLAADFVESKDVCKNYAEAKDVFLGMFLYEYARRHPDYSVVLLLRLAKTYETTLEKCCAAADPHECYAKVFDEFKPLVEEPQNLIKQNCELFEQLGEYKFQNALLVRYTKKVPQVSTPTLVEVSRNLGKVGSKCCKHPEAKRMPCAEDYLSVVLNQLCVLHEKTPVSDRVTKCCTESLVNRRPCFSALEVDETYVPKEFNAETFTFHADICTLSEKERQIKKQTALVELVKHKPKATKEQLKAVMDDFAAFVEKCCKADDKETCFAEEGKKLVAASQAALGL

As for `NNC(=O)c1ccncc1` [Isoniazid], the “ED99 (dose that reduces 2 logs bacterial burden in the lungs of mice; 95% confidence interval in parenthesis)” value with H37Rv is 0.95 (0.86–1.1 ) mg/kg. In addition, in data set [1], the CC50 at 72 h was over 256 µM. The compound further came in with an AUC(0-inf) in data set [2] (0.98 mg/kg) of 5.5 µM·h.

`CC(C)=CCC/C(C)=C/CNCCNC1C2CC3CC(C2)CC1C3` (stereo not drawn) [SQ109]: the “activity against M. tuberculosis H37Rv bacilli in anaerobic models” value in data set [3] was “neither AU1235 nor SQ109 gave detectable activity”.

As to `COc1c(N2C[C@@H]3CCCN[C@@H]3C2)c(F)cc2c(=O)c(C(=O)O)cn(C3CC3)c12` [Moxifloxacin], the “ED99 (dose that reduces 2 logs bacterial burden in the lungs of mice; 95% confidence interval in parenthesis)” value in the data set on H37Rv is given as 28 (26–29) mg/kg. In addition, in data set [2] (27.5 mg/kg), the area under the curve AUC(0-inf) came out at 9.4 µM·h.

As for AU1235, the “activity against M. tuberculosis H37Rv bacilli in anaerobic models” value in data set [3] (ref [17]-[19]) is “neither AU1235 nor SQ109 gave detectable activity”.

Take `COc1ccc(-c2cc(CN3CCOCC3)c(C)n2-c2ccc(C(C)C)cc2)cc1` [Compound 25]: the “CHILogD pH 2” value stood at 1.36, the “CHILogD pH 7.4” value worked out at 4.36 and the “CHILogD pH 10.5” value stood at 4.86. For the same compound, the “HSA (%) binding” value in [4] was determined as 97.02%. Further, in “in vitro [5]”, the Cli mouse is given as 10.55 mL/min/g and the “t1/2 in mouse microsomes” value is given as under 5 min. For the same compound, in “in vitro [6]”, the Cli human is 0.5 mL/min/g and the “t1/2 in human microsomes” value is reported as over 30 min. In the data set on Vero cells, the CC50 came to 12.9 µM. The “Tox50, cytotoxicity in HepG2 cells” value in the data set on HepG2 cells stood at 15.9 µM. Moreover, the “PPB (%)” value in data set [7] is reported as over 99.9%.

In turn, `Cc1ccc(-c2cc(CN3CCOCC3)c(C)n2-c2ccc(Cl)cc2)cc1` [Compound 10, 2-Methyl-3-[(morpholin-4-yl)-methyl]-5-[4-(methyl)phenyl]-1-[4-(chloro)phenyl]-1H-pyrrole] gave an MIC with M. tuberculosis H37Rv of 0.6 µM (≈ 0.229 µg/mL). In addition, the “HSA (%) binding” value in data set [4] (human, pH 7.4) came to 97.69%. In addition, the Cli mouse in the data set “in vitro [5]” (mouse, 0.5 µM, pH 7.4) was determined as 2.6 ± 0.1 mL/min/g. Further, the half-life was 25.7 min in the data set “in vitro [5]” (pH 7.4) and over 30 min in “in vitro [6]” (pH 7.4). Besides, in the data set “in vitro [6]” (human, 0.5 µM, pH 7.4), the Cli human is under 0.5 mL/min/g. The same compound returned a melting point in [8] of 130 °C. The “Tox50, cytotoxicity in HepG2 cells” value in the data set with HepG2 cells (human, 48 h) is listed as 25 µM. Also, the CC50 at 72 h in the data set “in vitro [9]” turned out to be 179 µM. The chromatographic logD in the data set “physchem” (pH 2) was determined as 1.3; in the data set “physchem” (pH 7.4), 4.4; in “physchem” (pH 10.5), 4.78. This compound also gave a fraction unbound at 1 µM in the data set “in vitro [10]” of 0.002.

In the data set on M. tuberculosis H37Rv, `Cc1c(CN2CCOCC2)cc(-c2ccc(C(C)C)cc2)n1-c1ccc(F)cc1` [Compound 9, 2-Methyl-3-[(morpholin-4-yl)-methyl]-5-[4-(i-propyl)phenyl]-1-[4-(fluoro)phenyl]-1H-pyrrole] came in with an MIC of 0.12 µM (≈ 0.0471 µg/mL). In [4] (human, pH 7.4), the “HSA (%) binding” value worked out at 97.71%. Besides, the results for the half-life in the data set “in vitro [5]” (pH 7.4), in “in vitro [6]” (pH 7.4) and in the data set “in vivo” (50 mg/kg) were over 30 min, over 30 min and 60 min, respectively. The compound also came in with a Cli human in the data set “in vitro [6]” (human, 0.5 µM, pH 7.4) of under 0.5 mL/min/g. The “ED99 (dose that reduces 2 logs bacterial burden in the lungs of mice; 95% confidence interval in parenthesis)” value in the data set on H37Rv is 49 (43–54) mg/kg. For the same compound, in data set [8], the melting point amounted to 120 °C. Besides, in the data set with HepG2 cells (human, 48 h), the “Tox50, cytotoxicity in HepG2 cells” value was determined as 15.3 µM. For the same compound, the AUC(0-inf) in “in vivo” (50 mg/kg) was 11.6 µM·h. In the data set “in vivo” (50 mg/kg), this compound had a Cmax of 1620 nM. Besides, the Tmax in “in vivo” (50 mg/kg) turned out to be 60 min. In addition, in the data set “in vitro [9]”, the CC50 at 72 h stood at 50.1 µM. The figures for the chromatographic logD in “physchem” (pH 2), in “physchem” (pH 7.4) and in “physchem” (pH 10.5) were 1.47, 4.57 and 4.95, respectively. The compound further came in with an unbound share (fraction unbound) at 1 µM in “in vitro [10]” of under 0.001.

For `CCCc1ccc(-n2c(-c3ccc(OC)cc3)cc(CN3CCOCC3)c2C)cc1` [Compound 24], the “CHILogD pH 2” value turned out to be 1.46, the “CHILogD pH 7.4” value worked out at 4.52 and the “CHILogD pH 10.5” value is 4.97. For the same compound, the “HSA (%) binding” value in [4] was determined as 97.43%. The “t1/2 in mouse microsomes” value in the data set “in vitro [5]” was over 30 min. In addition, in “in vitro [6]”, the Cli human was under 0.5 mL/min/g and the “t1/2 in human microsomes” value is recorded as over 30 min. In the data set on Vero cells, this compound registered a CC50 of 31.2 µM. Further, in the data set with HepG2 cells, the “Tox50, cytotoxicity in HepG2 cells” value came out at 2.1 µM. Also, in data set [7], the “PPB (%)” value was over 99.9%.

`CCc1ccc(-c2cc(CN3CCOCC3)c(C)n2-c2ccc(F)cc2)cc1` [Compound 8, 2-Methyl-3-[(morpholin-4-yl)-methyl]-5-[4-(ethyl)phenyl]-1-[4-(fluoro)phenyl]-1H-pyrrole]: in the data set on M. tuberculosis H37Rv, the MIC was determined as 0.2 µM (≈ 0.0757 µg/mL). In addition, the “HSA (%) binding” value in data set [4] (human, pH 7.4) worked out at 97.14%. In the data set “in vitro [5]” (mouse, 0.5 µM, pH 7.4), this compound yielded a Cli mouse of 5.64 mL/min/g. The half-life in “in vitro [5]” (pH 7.4) was 12.5 min; in the data set “in vitro [6]” (pH 7.4), over 30 min. Moreover, in the data set “in vitro [6]” (human, 0.5 µM, pH 7.4), the Cli human worked out at 1.09 mL/min/g. The same compound showed a melting point in data set [8] of 107 °C. For the same compound, in the data set on HepG2 cells (human, 48 h), the “Tox50, cytotoxicity in HepG2 cells” value is listed as 19.5 µM. The CC50 at 72 h in “in vitro [9]” turned out to be 18.9 µM. In addition, the chromatographic logD in the data set “physchem” (pH 2) is 1.26; in “physchem” (pH 7.4), 4.21; in the data set “physchem” (pH 10.5), 4.64. In “in vitro [10]”, the fraction unbound at 1 µM is 0.006.

`CSc1ccc(-c2cc(CN3CCOCC3)c(C)n2-c2ccc(F)cc2)cc1` [Compound 7, 2-Methyl-3-[(morpholin-4-yl)-methyl]-5-[4-(methylthio)phenyl]-1-[4-(fluoro)phenyl]-1H-pyrrole] came in with an MIC against M. tuberculosis H37Rv of 0.6 µM (≈ 0.238 µg/mL). In data set [4] (human, pH 7.4), the “HSA (%) binding” value worked out at 97.00%. This compound gave a Cli mouse in the data set “in vitro [5]” (mouse, 0.5 µM, pH 7.4) of 7.30 mL/min/g. The values for the half-life in the data set “in vitro [5]” (pH 7.4) and in “in vitro [6]” (pH 7.4) were 9.27 min and over 30 min, respectively. In “in vitro [6]” (human, 0.5 µM, pH 7.4), this compound came in with a Cli human of 0.56 mL/min/g. In [8], this compound returned a melting point of 134 °C. For the same compound, in the data set on HepG2 cells (human, 48 h), the “Tox50, cytotoxicity in HepG2 cells” value is 32.9 µM. Besides, the CC50 at 72 h in the data set “in vitro [9]” was 44.3 µM. Also, the chromatographic logD in the data set “physchem” (pH 2) amounted to 1.13; in the data set “physchem” (pH 7.4) it was 3.82; in the data set “physchem” (pH 10.5), 4.24. In the data set “in vitro [10]”, this compound had a free fraction (fraction unbound) at 1 µM of 0.004.

Regarding `CO[C@H]1/C=C/O[C@@]2(C)Oc3c(C)c(O)c4c(O)c(c(/C=N/N5CCN(C)CC5)c(O)c4c3C2=O)NC(=O)/C(C)=C\C=C\[C@H](C)[C@H](O)[C@@H](C)[C@@H](O)[C@@H](C)[C@H](OC(C)=O)[C@@H]1C` [Rifampin, reference compound], the “ED99 (dose that reduces 2 logs bacterial burden in the lungs of mice; 95% confidence interval in parenthesis)” value with H37Rv is reported as 9.8 (9.0–11) mg/kg. Also, in the data set “in vivo” (10.4 mg/kg), the area under the curve AUC(0-inf) worked out at 102 µM·h. Besides, the CC50 at 72 h in “in vitro [9]” amounted to 207 µM.

The values above are taken from paper PMC3578785, “Improved BM212 MmpL3 Inhibitor Analogue Shows Efficacy in Acute Murine Model of Tuberculosis Infection” (PLoS ONE, 2013).
